{"source": "patent US20140080907A1", "about": "“LIVER REGENERATION ACCELERATOR COMPRISING BETAINE” (SNU R&DB FOUNDATION, priority 2009, published 2014)", "key": {"resected liver": {"tested_on": "resected liver", "assay": "Liver weight increase in the rat after 2/3 partial hepatectomy or sham laparotomy", "format": "in vivo, Male Sprague Dawley rats", "procedure": "Male Sprague Dawley rats were purchased from Central Lab. Animal Inc., Korea. Test animals were adapted to an animal facility where temperature was maintained at 22±2° C., humidity at 55±5%, and artificial illumination was provided for 12 hours a day, at least for a week before being used in the experiment. The rats weighed 230-260 g at the time when partial hepatectomy was performed. Filtered tap water and solid regular rat chow were provided freely. For the animal group that was supposed to be treated with betaine, betaine purchased from Sigma, USA, was dissolved in filtered tap water at the concentration of 1% and provided to the group as drinking water. Betaine was administered after partial hepatectomy was conducted. In some experiments, betaine containing drinking water was provided to the animal group from 2 weeks before partial hepatectomy to increase the effect of betaine. Partial hepatectomy was performed according to the method originally introduced by Higgins and Anderson (Arch Path, 12; 186, 1931). The rat was anesthetized lightly with ether, and then the middle line of abdomen was incised approximately 3 cm. First, the skin was cut and then abdominal muscle was incised carefully not to damage internal organs. The incised upper part was lifted up by using a pincette to cut the connective tissues connected with diaphragm supporting liver tissue using scissors. Light pressure was applied to the surrounding area of the incision line to expose median lobe and left lateral lobe taking about 70 volume % of the total hepatic lobes. Connective tissues of each hepatic lobe were carefully removed and tied with suture to close the blood vessel, followed by elimination of the exposed hepatic lobe. Muscles and skin of the incised area were stitched up with suture. The incised area was sterilized with 70% ethyl alcohol to prevent infection. For the control group, abdominal incision was simply performed and then stitched up (Sham). Male rats were randomly divided into 4 groups of 4 rats each. Group 1, the control group, had laparotomy alone without damaging internal organs and then the opening was sealed (Sham group). Group 2 was treated with betaine after laparotomy (Sham+Betaine group). Group 3 had two-thirds (⅔) partial hepatectomy (PH group), and Group 4 was treated with betaine after ⅔ partial hepatectomy (PH+Betaine group). For the administration of betaine to the groups that had laparotomy only or partial hepatectomy, 1% betaine solution was provided as drinking water. For other groups, filtered tap water was provided as drinking water. In Table 1, the values on day 0 indicate the relative liver weight (liver/weight percentage) in the normal rats not having the surgery. Each group was composed of 4 rats except that 8 rats were used for the calculation for day 0 values. Value is mean±standard deviation. * Statistically significant difference between the group treated with betaine and the group without betaine treatment (Student's t-test, P<0.05). […] SH: Sham, PH: Partial hepatectomy. The number in parenthesis indicates % to the SH group."}, "[1]": {"assay": "Serum hepatotoxic parameters (AST, ALT) in rats after hepatectomy", "format": "in vivo, Male Sprague Dawley rats", "details": "for ALT / AST: serum, end of experiment", "procedure": "(§1) Male Sprague Dawley rats were purchased from Central Lab. Animal Inc., Korea. Test animals were adapted to an animal facility where temperature was maintained at 22±2° C., humidity at 55±5%, and artificial illumination was provided for 12 hours a day, at least for a week before being used in the experiment. The rats weighed 230-260 g at the time when partial hepatectomy was performed. Filtered tap water and solid regular rat chow were provided freely. For the animal group that was supposed to be treated with betaine, betaine purchased from Sigma, USA, was dissolved in filtered tap water at the concentration of 1% and provided to the group as drinking water. Betaine was administered after partial hepatectomy was conducted. In some experiments, betaine containing drinking water was provided to the animal group from 2 weeks before partial hepatectomy to increase the effect of betaine.\n(§2) Partial hepatectomy was performed according to the method originally introduced by Higgins and Anderson (Arch Path, 12; 186, 1931). The rat was anesthetized lightly with ether, and then the middle line of abdomen was incised approximately 3 cm. First, the skin was cut and then abdominal muscle was incised carefully not to damage internal organs. The incised upper part was lifted up by using a pincette to cut the connective tissues connected with diaphragm supporting liver tissue using scissors. Light pressure was applied to the surrounding area of the incision line to expose median lobe and left lateral lobe taking about 70 volume % of the total hepatic lobes. Connective tissues of each hepatic lobe were carefully removed and tied with suture to close the blood vessel, followed by elimination of the exposed hepatic lobe. Muscles and skin of the incised area were stitched up with suture. The incised area was sterilized with 70% ethyl alcohol to prevent infection. For the control group, abdominal incision was simply performed and then stitched up (Sham).\nAlanine aminotransferase (ALT) activity and aspartate aminotransferase (AST) activity were measured by the method of Reitman and Frankel (Amer J Clin Pathol 28; 56, 1957) using spectrophotometer. ALT, AST substrate solutions and an aliquot of serum were added to a test tube, followed by incubation at 37° C. Upon completion of the reaction, the color developing agent and 0.4 N NaOH were added thereto, followed by measurement of absorptivities at 520 nm. The activity of each enzyme was calculated based on the standard calibration curve generated by using pyruvate as a substrate.\nMale rats were randomly divided into 4 groups of 4 rats each. Group 1, the control group, had laparotomy alone without damaging internal organs and then the opening was sealed (Sham group). Group 2 was treated with betaine after laparotomy (Sham+Betaine group). Group 3 had two-thirds (⅔) partial hepatectomy (PH group), and Group 4 was treated with betaine after ⅔ partial hepatectomy (PH+Betaine group). For the administration of betaine to the groups that had laparotomy only or partial hepatectomy, 1% betaine solution was provided as drinking water. For other groups, filtered tap water was provided as drinking water.\nAt the end of the experiment, hepatotoxic parameters in serum were measured.\nIn Table 2, each group was composed of 4 rats. Value is mean±standard deviation. Statistically significant difference was not shown between different groups (Oneway ANOVA followed by Neuman Keul Multiple range test, P>0.05)."}, "[2]": {"tested_on": "PCNA (proliferating cell nuclear antigen)", "assay": "PCNA expression in liver after partial hepatectomy (Western blotting)", "format": "in vivo, rat", "details": "for PCNA expression, increase compared with tap water group: 1% betaine from 2 weeks before hepatectomy; for PCNA expression compared with tap water group: 1% betaine in drinking water after hepatectomy", "procedure": "as §1, §2\n(§3) Cytosolic fraction was prepared from the excised liver using the standard method. The protein of cytosol was separated by SDS-PAGE, followed by electroblotting, and then transferred to nitrocellulose membrane. The membrane was treated with PBS-T buffer containing 5% nonfat milk at 4° C. for overnight. The nitrocellulose membrane was reacted with the primary antibody diluted with 5% bovine serum albumin. The primary antibodies used herein were mouse monoclonal anti-cyclin D1 serum (Santa Cruz Biotechnology, CA, U.S.A.) and rabbit polyclonal anti-human PCNA (Santa Cruz Biotechnology, CA, U.S.A.). After washing twice with PBS-T, the membrane was treated with the secondary antibody horseradish peroxidase-conjugated goat anti-rabbit IgG (Pierce Biotechnology, Rockford, Ill., U.S.A.). […]"}, "cyclin D1": {"tested_on": "cyclin D1", "assay": "Cyclin D1 expression in liver after partial hepatectomy (Western blotting)", "format": "in vivo, rat", "procedure": "as §1, §2, §3"}, "[3]": {"details": "2/3 partial hepatectomy + 1% betaine in drinking water after surgery, day 7"}, "[4]": {"details": "Sham + 1% betaine in drinking water"}, "[5]": {"details": "partial hepatectomy + 1% betaine in drinking water"}}, "note": "Marks after values point to notes of the source that are not given here.", "data": [{"molecule": "C[N+](C)(C)CC(=O)[O-]", "note": "[Betaine, trimethylglycine]", "values": [{"measurement": "relative liver weight (liver/weight percentage)", "setting": "resected liver; 2/3 partial hepatectomy + 1% betaine in drinking water after surgery, day 1", "result": "1.47 ± 0.05", "unit": "%"}, {"measurement": "relative liver weight (liver/weight percentage)", "setting": "resected liver; 2/3 partial hepatectomy + 1% betaine in drinking water after surgery, day 2", "result": "1.98 ± 0.05* %"}, {"measurement": "relative liver weight (liver/weight percentage)", "setting": "resected liver; [3]", "result": "3.17 ± 0.06*, a %"}, {"measurement": "relative liver weight, % to the SH group", "setting": "resected liver; [3]", "result": "(94%)"}, {"measurement": "relative liver weight, % to the SH group", "setting": "resected liver; 2/3 partial hepatectomy + 1% betaine in drinking water after surgery, day 7, listed as betaine", "result": 94, "unit": "%"}, {"measurement": "relative liver weight (liver/weight percentage)", "setting": "resected liver; Sham (laparotomy only) + 1% betaine in drinking water, day 7", "result": "3.30 ± 0.10", "unit": "a %"}, {"measurement": "relative liver weight (liver/weight percentage)", "setting": "resected liver; Sham (laparotomy only) + 1% betaine in drinking water, day 7, listed as betaine", "result": "did not affect the relative liver weight"}, {"measurement": "relative liver weight, % to the SH group", "setting": "resected liver; Sham + 1% betaine in drinking water, day 7", "result": "(98%)"}, {"measurement": "effect on serum AST and ALT activities", "setting": "[1]; 1% betaine in drinking water, sham or hepatectomized rats", "result": "did not affect serum AST and ALT activities"}, {"measurement": "ALT", "setting": "[1]; [4]", "result": "22 ± 2", "unit": "units/ml"}, {"measurement": "AST", "setting": "[1]; [4]", "result": "83 ± 3", "unit": "units/ml"}, {"measurement": "ALT", "setting": "[1]; [5]", "result": "27 ± 2", "unit": "units/ml"}, {"measurement": "AST", "setting": "[1]; [5]", "result": "78 ± 11", "unit": "units/ml"}, {"measurement": "PCNA expression, increase compared with tap water group", "setting": "[2]; 24 hours after hepatectomy (FIG. 1b)", "result": 190, "unit": "%"}, {"measurement": "PCNA expression, increase compared with tap water group", "setting": "[2]; 48 hours after hepatectomy (FIG. 1b)", "result": 150, "unit": "%"}, {"measurement": "PCNA expression compared with tap water group", "setting": "[2]; 24 hours (FIG. 1a)", "result": "significantly increased"}, {"measurement": "PCNA expression compared with tap water group", "setting": "[2]; 48 hours (FIG. 1a)", "result": "significantly increased"}, {"measurement": "cyclin D1 expression, higher than tap water group", "setting": "cyclin D1; betaine from 2 weeks before hepatectomy, 12th hour after hepatectomy (FIG. 2)", "result": 50, "unit": "%"}, {"measurement": "cyclin D1 expression compared with tap water group", "setting": "cyclin D1; betaine from 2 weeks before hepatectomy, 24 hours after hepatectomy (FIG. 2)", "result": "remained elevated"}, {"measurement": "cyclin D1 expression compared with tap water group", "setting": "cyclin D1; betaine from 2 weeks before hepatectomy, 48 hours after hepatectomy (FIG. 2)", "result": "difference between the two groups disappeared"}, {"measurement": "cyclin D1 expression compared with tap water group", "setting": "cyclin D1; normal rats without hepatectomy, betaine in drinking water, 0 hour (FIG. 2)", "result": "no significant difference"}]}]}
